Assay results from PMC10977697 (PLOS ONE, 2024).
Where a SMILES comes first, the peptide text is derived from it.

Legend:
[1] = biological target: T1, Her3-Fc (Homo sapiens, UniProt P21860); assay: SPR binding to Her3-Fc; conditions: Biacore S200, 25°C; Her3-Fc Avi-tag on chip SA; HBS-EP+ plus 1% DMSO; MCK
T1 construct: purchased R&D 348-RB
Description: (§1) All binding experiments were performed using a Biacore S200 instrument (GE Healthcare) at 25°C at a flow rate of 50 μL/min. The kinetics and affinity measurements were carried out using either single-cycle or multi-cycle kinetics (SCK or MCK), solvent corrected and referenced by subtracting the signal to the blank flow cell. Binding affinity and kinetic parameters (association and dissociation rate constants, and dissociation equilibrium constant) were calculated with the Biacore S200 Evaluation Software (version 1.1.1, Cytiva) using either a 1:1 binding model or a steady-state equilibrium model (according to the manufacturer’s instructions).
Her3-Fc Avi-tag (R&D) was captured at about 1200 and 3000 RU on Series S Sensor Chip SA (Cytiva). The SPR measurements were done in HBS-EP+ buffer (0.01 M HEPES pH 7.4, 0.15 M NaCl, 3 mM EDTA, 0.05% v/v Surfactant P20) plus 1% v/v DMSO.

[2] = biological target: T1, Her3-Fc; assay: Spot phage ELISA, Her3-Fc; format: binding
[3] = biological target: T2, Notch2Long (Notch2 EGF6-EGF12) (Homo sapiens, UniProt Q04721); assay: SPR binding of synthetic DCPs to Notch2Long; conditions: Biacore S200, 25°C, 50 μL/min; synthetic in vitro folded peptide, 3-fold dilution from 100 μM; biotinylated N2L on chip SA; steady state fitting; at least three independent experiments; n/d = no binding
T2 construct: Biotinylated N2L protein (D219–E418, made in-house); His tag (cleaved yes); made in house; host or cells: CHO
T2 sequence (Q04721 219-418): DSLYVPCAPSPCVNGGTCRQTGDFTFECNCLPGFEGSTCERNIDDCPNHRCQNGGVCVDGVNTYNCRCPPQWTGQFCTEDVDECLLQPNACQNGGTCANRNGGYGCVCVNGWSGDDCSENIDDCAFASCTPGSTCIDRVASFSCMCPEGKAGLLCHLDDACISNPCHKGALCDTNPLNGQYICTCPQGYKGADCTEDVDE
Description: as §1
Biotinylated N2L protein (D219–E418, made in-house) and NRR protein (A1423–Q1677, made in-house) were captured at around 500, 1000 and 1500 RU on Sensor Chip SA (Cytiva).

[4] = test system: Notch2Long; assay: Spot phage ELISA, Notch2Long; format: binding, human; conditions: Table 3, affinity maturation clones
[5] = test system: Notch 2; assay: Phage competition ELISA on Notch 2; format: binding, human; conditions: N2L_EET03 peptide against N2L_EET31 displaying phage (Fig 5C)
Source text: Subsequently, we selected another primary hit, N2L.EET31, for affinity maturation as outlined in Fig 5A with improved outcome. Despite displaying a weak ELISA signal, N2L.EET31 was identified as the most abundant sequence by NGS analysis (56.6% in round 4). […] Due to these observations, N2L.EET31 was selected as another candidate for affinity maturation. An NNK-walking experiment (described in the methods section) provided valuable information on the functional importance of individual loop residues. […] These residues are either crucial for binding or play a critical role in overall peptide folding. […] Based on this information, we designed hard randomization libraries for Loop 2 and Loop 3_4 as part of the second generation of affinity maturation.

T1 sequence (P21860 20-643 limits assumed): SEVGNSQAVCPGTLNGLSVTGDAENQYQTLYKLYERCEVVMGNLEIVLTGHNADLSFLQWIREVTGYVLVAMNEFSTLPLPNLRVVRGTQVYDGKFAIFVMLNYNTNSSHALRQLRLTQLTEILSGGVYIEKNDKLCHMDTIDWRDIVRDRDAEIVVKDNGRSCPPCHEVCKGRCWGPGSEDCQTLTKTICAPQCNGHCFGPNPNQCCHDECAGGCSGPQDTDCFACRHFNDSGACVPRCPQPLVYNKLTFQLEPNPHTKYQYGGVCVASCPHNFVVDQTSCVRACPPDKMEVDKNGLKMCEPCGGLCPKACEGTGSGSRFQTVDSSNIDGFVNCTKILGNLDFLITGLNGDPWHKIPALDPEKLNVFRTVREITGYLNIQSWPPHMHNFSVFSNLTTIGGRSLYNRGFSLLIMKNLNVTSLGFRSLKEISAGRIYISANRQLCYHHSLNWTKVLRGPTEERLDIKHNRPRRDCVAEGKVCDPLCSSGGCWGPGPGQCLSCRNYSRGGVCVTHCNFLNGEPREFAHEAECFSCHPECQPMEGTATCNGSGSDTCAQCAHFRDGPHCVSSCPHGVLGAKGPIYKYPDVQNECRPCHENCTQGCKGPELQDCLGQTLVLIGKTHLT

SMILES	Kd [1] [µM]	S/N ([2]; ratio of signal for target protein over BSA background)	ELISA ([2]; spot phage ELISA signal, DCP displayed on M13 p8, L1 2)	Kd [3] [µM]	s/n ratio ([4]; signal over BSA background)	ELISA ([4]; spot phage ELISA signal, display (p8 or p3) not given per clone)	competition in phage competition ELISA [5]
CC(C)C[C@@H]1NC(=O)[C@H](CCCNC(=N)N)NC(=O)[C@H](CCC(N)=O)NC(=O)[C@@H]2CSSC[C@@H](C(=O)N[C@@H](CCC(=O)O)C(=O)N[C@@H](CCC(=O)O)C(=O)O)NC(=O)[C@H](CCCCN)NC(=O)[C@@H]3CSSC[C@H](NC(=O)[C@H](CCC(=O)O)NC(=O)[C@H](CCCCN)NC(=O)[C@H](CO)NC(=O)[C@H]([C@@H](C)O)NC(=O)[C@H]([C@@H](C)O)NC(=O)[C@@H](NC(=O)[C@H](CO)NC(=O)[C@@H](N)C(C)C)CSSC[C@H](NC(=O)[C@H](CCC(N)=O)NC(=O)[C@H](CCC(=O)O)NC(=O)CNC(=O)[C@H](Cc4c[nH]c5ccccc45)NC(=O)[C@H](CO)NC(=O)[C@H]([C@@H](C)O)NC(=O)[C@H](CC(N)=O)NC(=O)[C@H](Cc4c[nH]cn4)NC1=O)C(=O)N[C@@H](C(C)C)C(=O)N[C@@H]([C@@H](C)O)C(=O)N[C@@H](CCCCN)C(=O)N[C@@H](Cc1ccccc1)C(=O)N3)C(=O)N[C@@H](Cc1c[nH]c3ccccc13)C(=O)N[C@@H](CO)C(=O)N[C@@H](C(C)C)C(=O)N2 [Her3-Fc_ChTx1]	> 10	22.6	1.74	–	–	–	–
CC[C@H](C)[C@@H]1NC(=O)[C@@H](NC(=O)CN)CSSC[C@@H]2NC(=O)CNC(=O)[C@H](C)NC(=O)[C@H](CC(C)C)NC(=O)[C@@H]3CSSC[C@@H](C(=O)NCC(=O)O)NC(=O)[C@H](CCC(N)=O)NC(=O)[C@H]([C@@H](C)CC)NC(=O)[C@H](Cc4c[nH]c5ccccc45)NC(=O)[C@H](C(C)C)NC(=O)[C@H](CCC(=O)O)NC(=O)[C@H](CSSC[C@H](NC(=O)[C@H](Cc4c[nH]c5ccccc45)NC(=O)[C@H](CC(C)C)NC(=O)[C@H](Cc4c[nH]cn4)NC(=O)[C@H](CO)NC(=O)[C@H](CCCCN)NC1=O)C(=O)N[C@@H](CCCCN)C(=O)N[C@@H](CCC(N)=O)C(=O)N[C@@H](CC(=O)O)C(=O)N[C@@H](CO)C(=O)N[C@@H](CC(=O)O)C(=O)N3)NC(=O)[C@H](C(C)C)NC2=O [N2L.EET31] (HELM PEPTIDE1{G.C.I.K.S.H.L.W.C.K.Q.D.S.D.C.L.A.G.C.V.C.E.V.W.I.Q.C.G}$PEPTIDE1,PEPTIDE1,2:R3-19:R3|PEPTIDE1,PEPTIDE1,9:R3-21:R3|PEPTIDE1,PEPTIDE1,15:R3-27:R3$$$V2.0; N-terminus and C-terminus assumed)	–	–	–	> 100	0.4	0.1	exhibited competition with N2L.EET03
